Experimental data as given in patent US5135849A, “In-vitro methods for identifying compositions which are agonists and antagonists of androgens” (priority 1989, dated 1992).
Like-named read-outs stand apart in the source and are kept apart here.

Assays:
LNCaP cells [1] = assay: Phase 2 protocol for androgen antagonistic properties (LNCaP proliferation with 3×10^-10 M 5α-DHT plus test substance); details: for antagonistic activity, in words: Phase 2 protocol
LNCaP cells [2] = assay: Phase 1 protocol to identify androgen agonist properties (LNCaP cell proliferation in CDHS medium); format: cell-based, human; details: for OPTIMAL TEST CONC. (Phase 1) / PHASE 1 CELL COUNT / cell yields compared with DHT alone, in words: 10% CDHS; for CHARACTERISTICS: classification from Phase 1 and Phase 2 protocols; for PHASE 1 CELL COUNT: final cell number per well at the optimal test conc.; for agonistic / proliferative activity, in words: Phase 1 protocol, CDHS-supplemented media; for cell yields compared with DHT alone, in words: 3×10^-8 M
From the text: This protocol measures the potential agonistic properties of the substance under test. All manipulations are to be carried out under sterile conditions using disposable plastic tissue culture multiwell plates with all manipulations preferrably being performed in a tissue culture hood.
1. The cell line of choice is the LNCaP-FGC cell culture, an androgen-sensitive prostate tumor cell line. The LNaP cell line is routinely grown in 5% fetal bovine serum--supplemented Dulbecco's modified Eagle minimal essential medium (hereinafter "5% FBS/DME"), at 37° C. in a 95% air--5% CO2 atmosphere.
2. The cultured cells growing in 5% FBS/DME are harvested by treatment with trypsin (1:250)--EDTA (0.2%). The cells are detached by brief exposure to trypsin for about two minutes. To avoid excessive proteolysis, the reaction is quenched by addition of equal volumes of 5% FBS/DME. The resulting cell suspension is collected into a sterile centrifuge tube and resuspended by pipetting gently. The aliquots of this cell suspension thus obtained are dispersed by means of a Skatron dispenser into individual wells containing the seedling medium (1 ml of 5% FBS/DME per well) of a multiwell plate. Each final prepared suspension preferably contains 50,000 cells in a volume of 1.0 ml. It is desirable that the number of cells be counted and verified by means of a Coulter Counter (Coulter Electronics, Hialeah, FL).
The number of wells in each plate will correspond to the number of concentrations per test substances to be evaluated and thus is merely a question of choice or convenience to the user. Into each well, 25 microliter (hereinafter "ul") aliquots of the prepared cell suspension are added using a 1.0 ml syringe fitted with a 19 gauge needle attached to a repetitive Dunn pipetter (Skatron Dispenser). The microtiter plate is then gently shaken to avoid unequal cell distribution within each individual well. The seeded cells are then allowed to attach to the plastic surface of the well proper over a period of 24-72 hours' duration after which the fluid is changed to the experimental maintaining medium.
3 At the time of test, all the seeded cells in each well of the multiwell plate receive 10% heat inactivated--charcoal-dextran human stripped serum (CDHS) in DME at a volume of 0.9 ml per well. Although higher concentrations of CDHS may be utilized up to and including 40% concentrations, the 10% concentration is most preferred.
5. To the other prepared (seeded) wells, 100 ul of the test substance to be evaluated is added as a 10X stock solution to achieve final concentrations ranging from 10^-5 M to at least 10^-12 M. The substance under test is preferably prepared as a stock solution in ethanol, most preferrably as a 10^-3 M solution. All dilutions from the stock preparation are made using DME. The ethanol concentration in the culture medium should be kept below […] by volume. This preparative technique and precaution avoids the need to filter the various volumes of test substance to achieve sterility. This is particularly valuable because steroidal compositions are known to become adsorbed to the commercially obtained filter membranes used for sterilization. The addition of the test substance in appropriate concentrations to the cultured cells and the maintaining medium forms a series of individual reaction mixtures, each of which is varied only by the concentration of the test substance present in the well.
6. After the series of individual reaction mixtures are formed, all of the cultured cells under test in each well of the microtiter plate are incubated at 37° C. preferably in an atmosphere of 5% CO2 /95% air under saturating humidity. During this incubation time, it is desired and preferred that the cultured cells employed in the test be maintained in an atmosphere most advantageous for survival and growth of that cell line. The incubation period preferably is in the range of from 5 to 7 days' duration.

androgen receptor = target: T1, androgen receptor (Homo sapiens, UniProt P10275, T878A); assay: Competition for androgen receptors with 3H-testosterone in LNCaP cytosol-nuclear extracts (RBA); format: binding; details: for RBA (relative binding affinity to the androgen receptor): Table II, 5α-DHT = 100, 6×10^-9 M 3H-testosterone
T1 construct: the presence of specific androgen receptors in LNCaP cells; endogenous in cells; extract or intact cells for the saturation analysis
Protocol: Steroid receptors measurement: The presence of intracellular sex steroid binding proteins was investigated in whole cell extracts as well as in intact cells. Cytosolic and nuclear extracts were obtained after centrifugation (105,000 g, 45 min.) of a sonicated cellular suspension in TKE buffer (10 mM Tris, 500 mM KCl, 0.5 mM EDTA, pH 7.4). Aliquots of this extract were incubated for 18 hours at 4° C. with increasing concentrations (2×10^- M to 2×10^-8 M) of labelled steroids, with and without a 200-fold excess of the corresponding unlabelled steroid. Bound and free fractions were separated by dextran-coated charcoal adsorption. Intact cells grown in monolayer culture were assayed for specific steroid binding [Olea-Serrano et al., Eur. J. Cancer Clin. Oncol. 21:965-973 (1983)]. Briefly, the cells were incubated in 12-well plates during 50 minutes at 37° C. in DME containing the labelled steroid with and without excess of cold competitor. The range of concentrations used was the same as that in the cytosolic-nuclear extract assay. […] The intracellular radioactivity was extracted with ethanol after ice-cold PBS washing. In both types of experiments, Scatchard analysis of the saturation data was used to quantify the maximal binding capacity (Bmax) and the affinity parameters (dissociation constant, Kd) using the SCAFIT program [Munson et al., Anal. Biochem. 107:220-239 (1980)].
Cytosol-nuclear extracts were used to study competition for androgen receptors. […] The relative binding affinity (RBA) was calculated from the equation: […]

[3] = with 3×10^-10 M 5α-DHT, 10% CDHS

T1 sequence (P10275 whole entry T878A): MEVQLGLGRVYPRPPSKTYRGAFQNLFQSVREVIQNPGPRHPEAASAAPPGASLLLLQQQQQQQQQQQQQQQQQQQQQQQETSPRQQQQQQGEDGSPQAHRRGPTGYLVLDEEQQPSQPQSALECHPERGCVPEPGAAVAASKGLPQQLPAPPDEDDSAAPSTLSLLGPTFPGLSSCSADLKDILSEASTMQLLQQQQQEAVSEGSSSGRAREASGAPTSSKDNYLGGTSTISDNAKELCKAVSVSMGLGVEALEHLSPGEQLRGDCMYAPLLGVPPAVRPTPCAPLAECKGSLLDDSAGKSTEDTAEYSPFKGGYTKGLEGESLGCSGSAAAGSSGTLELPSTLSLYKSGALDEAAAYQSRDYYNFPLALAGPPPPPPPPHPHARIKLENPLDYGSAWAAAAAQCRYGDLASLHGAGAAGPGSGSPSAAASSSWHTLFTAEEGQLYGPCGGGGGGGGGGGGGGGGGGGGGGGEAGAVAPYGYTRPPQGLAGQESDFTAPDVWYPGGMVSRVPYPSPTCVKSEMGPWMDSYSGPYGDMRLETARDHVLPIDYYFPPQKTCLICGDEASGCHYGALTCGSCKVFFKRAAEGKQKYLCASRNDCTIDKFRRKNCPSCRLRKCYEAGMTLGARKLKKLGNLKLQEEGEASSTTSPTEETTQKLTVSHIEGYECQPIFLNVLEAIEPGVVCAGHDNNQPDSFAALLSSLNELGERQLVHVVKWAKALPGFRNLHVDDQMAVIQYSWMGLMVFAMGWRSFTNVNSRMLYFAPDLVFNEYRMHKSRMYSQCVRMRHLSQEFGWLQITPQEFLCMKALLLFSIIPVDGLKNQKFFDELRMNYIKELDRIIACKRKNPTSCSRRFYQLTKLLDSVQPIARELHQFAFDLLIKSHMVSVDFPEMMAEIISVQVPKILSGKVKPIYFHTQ

epidermal growth factor: Epidermal Growth Factor (Collaborative Research; Creative Biomolecules) (NSDSECPLSHDGYCLHDGVCMYIEALDKYACNCVVGYIGERCQYRDLKWWELR; Epidermal growth factor; UniProt P01133 971-1023, looked up)
OPTIMAL TEST CONC. (Phase II) (LNCaP cells [1]; [3]): 100 ng/mL | OPTIMAL TEST CONC. (Phase 1) (LNCaP cells [2]): 100 ng/mL | CHARACTERISTICS (LNCaP cells [2]): quiescent

C[C@]12CC[C@@H](O)C[C@@H]1CC[C@@H]1[C@@H]2CC[C@]2(C)[C@@H](O)CC[C@@H]12 [3α-diol, 5α-androstene, 3α,17β-diol]
CHARACTERISTICS (LNCaP cells [2]): full agonist | PHASE 1 CELL COUNT (LNCaP cells [2]): 2.5 × 10^5

CC(=O)O[C@]1(C(C)=O)CC[C@H]2[C@@H]3C[C@H](C)C4=CC(=O)CC[C@]4(C)[C@H]3CC[C@@]21C [medroxy progesterone, medroxyprogesterone acetate]
OPTIMAL TEST CONC. (Phase II) (LNCaP cells [1]): 3 µM | PHASE II CELL COUNT (LNCaP cells [1]): 4.0 × 10^5 | antagonistic activity, in words (LNCaP cells [1]): absence of antagonistic effects | CHARACTERISTICS (LNCaP cells [2]): full agonist | PHASE 1 CELL COUNT (LNCaP cells [2]): 4.0 × 10^5

C[C@]12CCC(=O)C=C1CC[C@@H]1[C@@H]2[C@@H](O)C[C@@]2(C)[C@H]1CC[C@]2(O)C(=O)CO [hydrocortisone]
CHARACTERISTICS (LNCaP cells [2]): quiescent | PHASE 1 CELL COUNT (LNCaP cells [2]): 5 × 10^4

CCC(=O)C1(C)CCC2C3CCC4=CC(=O)CCC4=C3CCC21C (stereo not drawn) [R5020, 17βmethyl-,21-methyl-19-nor-pregna-4,9-diene-3,10-dione]
RBA (relative binding affinity to the androgen receptor) (androgen receptor): 11 | antagonistic activity, in words (LNCaP cells [1]): no antagonistic activity | agonistic / proliferative activity, in words (LNCaP cells [2]): effective and potent androgen agonists | RELATIVE PROLIFERATIVE POTENCY (LNCaP cells [2]; Table II, 5α-DHT = 1.0, 5 × 10^4 cell inoculum grown in CDHS for 8 days): 0.01 | CHARACTERISTICS (LNCaP cells [2]): full agonists | PHASE 1 CELL COUNT (LNCaP cells [2]): 4.0 × 10^5

CC(C)(O)C(=O)Nc1ccc([N+](=O)[O-])c(C(F)(F)F)c1 [hydroxyflutamide]
RBA (relative binding affinity to the androgen receptor extracted from LNCaP) (androgen receptor; Table III, Testosterone = 1): 0.004 | antagonistic activity, in words (LNCaP cells [1]): absence of antagonistic effects | cell yields compared with DHT alone, in words (LNCaP cells [2]): increased cell yields at values consistently above those obtained with DHT alone | RPP (relative proliferation potency) (LNCaP cells [2]; Table III, Testosterone = 1, 10^5 cell inoculum grown in CDHS for 7 days): 0.01 | CHARACTERISTICS (LNCaP cells [2]): full agonist | PHASE 1 CELL COUNT (LNCaP cells [2]): 3.9 × 10^5

CC1(C)NC(=O)N(c2ccc([N+](=O)[O-])c(C(F)(F)F)c2)C1=O [anandron, 5,5-dimethyl-3-(4-nitro-3-(trifluoromethyl)-phenyl)-2,4-imidasolidinedione]
cell yields compared with DHT alone, in words (LNCaP cells [2]): increased cell yields at values consistently above those obtained with DHT alone | CHARACTERISTICS (LNCaP cells [2]): full agonist | PHASE 1 CELL COUNT (LNCaP cells [2]): 4.0 × 10^5

CC(=O)O[C@]1(C(C)=O)CC[C@H]2[C@@H]3C=C(Cl)C4=CC(=O)[C@@H]5C[C@@H]5[C@]4(C)[C@H]3CC[C@@]21C [cyproterone acetate]
cell yields compared with DHT alone, in words (LNCaP cells [2]): increased cell yields at values consistently above those obtained with DHT alone | CHARACTERISTICS (LNCaP cells [2]): full agonist | PHASE 1 CELL COUNT (LNCaP cells [2]): 4.1 × 10^5

C[C@@H]1CC2=CC(=O)CC[C@@H]2[C@H]2CC[C@@]3(C)[C@@H](CC[C@]3(C)O)[C@@H]21 [mibolerone, 7α,17α-dimethyl-19-nortestosterone]
CHARACTERISTICS (LNCaP cells [2]): full agonist | PHASE 1 CELL COUNT (LNCaP cells [2]): 2.5 × 10^5

CC(=O)[C@H]1CC[C@H]2[C@@H]3CCC4=CC(=O)CC[C@]4(C)[C@H]3CC[C@]12C [progesterone]
antagonistic activity, in words (LNCaP cells [1]): no antagonistic activity | agonistic / proliferative activity, in words (LNCaP cells [2]): effective and potent androgen agonists | CHARACTERISTICS (LNCaP cells [2]): full agonists | PHASE 1 CELL COUNT (LNCaP cells [2]): 4 × 10^5

insulin: Insulin (Eli Lilly Company)
OPTIMAL TEST CONC. (Phase II) (LNCaP cells [1]; [3]): 100 ng/mL | OPTIMAL TEST CONC. (Phase 1) (LNCaP cells [2]): 100 ng/mL | CHARACTERISTICS (LNCaP cells [2]): quiescent | PHASE 1 CELL COUNT (LNCaP cells [2]): 5 × 10^4

CC(=O)[C@H]1CC[C@H]2[C@@H]3CC=C4C[C@@H](O)CC[C@]4(C)[C@H]3CC[C@]12C [pregnenolone]
CHARACTERISTICS (LNCaP cells [2]): full agonist | proliferative potency (LNCaP cells [2]; compared with 5α-DHT values): 1% | PHASE 1 CELL COUNT (LNCaP cells [2]): 3.9 × 10^5

C[C@]12CC[C@@H]3c4ccc(O)cc4CC[C@H]3[C@@H]1CCC2=O [Estrone, estrone]
RBA (relative binding affinity to the androgen receptor) (androgen receptor): 0.1

CC(C)C(=O)Nc1ccc([N+](=O)[O-])c(C(F)(F)F)c1 [flutamide]
agonistic / proliferative activity, in words (LNCaP cells [2]): devoid of activity | CHARACTERISTICS (LNCaP cells [2]): quiescent | PHASE 1 CELL COUNT (LNCaP cells [2]): 5 × 10^4

C[C@]12CCC(=O)C[C@H]1CC[C@@H]1[C@@H]2CC[C@]2(C)[C@@H](O)CC[C@@H]12 [5β-DHT, 5β-dihydrotestosterone]
CHARACTERISTICS (LNCaP cells [2]): full agonist | PHASE 1 CELL COUNT (LNCaP cells [2]): 2.5 × 10^5

C[C@]12CC[C@H]3[C@@H](CCC4=CC(=O)CC[C@@]43C)[C@@H]1CC[C@@H]2O [testosterone]
agonistic / proliferative activity, in words (LNCaP cells [2]): proliferative pattern similar to that obtained with 5α-DHT | CHARACTERISTICS (LNCaP cells [2]): full agonist | PHASE 1 CELL COUNT (LNCaP cells [2]): 2.6 × 10^5

C[C@]12CCC(=O)C[C@@H]1CC[C@@H]1[C@@H]2CC[C@]2(C)[C@@H](O)CC[C@@H]12 [5α-DHT, 5α-dihydrotestosterone]
CHARACTERISTICS (LNCaP cells [2]): full agonist | PHASE 1 CELL COUNT (LNCaP cells [2]): 2.5 × 10^5

C[C@]1(O)CC[C@H]2[C@@H]3CCC4=CC(=O)CCC4=C3C=C[C@@]21C [R1881, 17β-hydroxy-17α-methyl-estra-4,9,11-trien-3-one]
antagonistic activity, in words (LNCaP cells [1]): no antagonistic activity | CHARACTERISTICS (LNCaP cells [2]): full agonists | PHASE 1 CELL COUNT (LNCaP cells [2]): 2.5 × 10^5
